Assay results from US11802128B2, “Azetidine and pyrrolidine PARP1 inhibitors and uses thereof” (Xinthera, Inc., priority 2021, dated 2023).

Assays:
[1] = tested on: MDA-MB-436 (mutated BRCA1) cells; assay: Cell growth inhibition assay (CellTiter-Glo cell viability, 7 days); format: cell-based; conditions: Homo sapiens, 168 h, MDA-MB-436, 7 days
Source text: (§1) The objective of this study is to evaluate the effect of invention compounds on cell proliferation through the cell viability assay in DLD-1 BRCA2(−/−) and parental isogenic pair and MDA-MB-436 (mutated BRCA1) cell lines. The CellTiter-Glo (CTG) based cell viability assay is designed to determine the number of viable cells in the culture because of compound effect, by quantifying ATP, which indicates the presence of metabolically active cells.
(§2) DLD-1 BRCA2(−/−) and parental isogenic pair were cultured in RPMI 1640 supplemented with 10% fetal bovine serum (FBS), and MDA-MB-436 cells were cultured in DMEM supplemented with 10% FBS. Both are culture at 37° C. with 5% CO2. Invention compounds were distributed to the 384 well plate (Corning, 3764) using Echo acoustic liquid handler to form a 1:3 serially diluted final concentration with top dose of 10 or 30 μM. The cells were seeded into the plate in the density of 50 cells/well (DLD-1 parental), 200 cells/well (DLD-1 BRCA2−/−), or 500 cells/well (MDA-MB-436). After a short spun, the cells were cultured in a well moisturized incubator at 37° C. with 5% CO2 for 7 days without disturbance. The cell viability was measured by CellTiter Glo 2.0 assay kit (Promega, G9243), and growth inhibition rate was calculated and plotted against final compound concentration, and the data were fitted in Xfit to generate IC50.

DLD-1 BRCA2(−/−) cells = assay: as above; format: cell-based; conditions: Homo sapiens, 168 h
Source text: as §1, §2

Compound	EC50 [1] [nM]	EC50 (DLD-1 BRCA2(−/−) cells) [nM]
CNC(=O)c1ccc(OC2CN(Cc3cnc4cc(C5CC5)c(=O)[nH]c4c3)C2)cn1 [Example 16, 5-({1-[(7-cyclopropyl-6-oxo-5H-1,5-naphthyridin-3-yl)methyl]azetidin-3-yl}oxy)-N-methylpyridine-2-carboxamide]	18	49
CCc1nc2c(F)cc(CN3C[C@H](Oc4ccc(C(=O)NC)nc4)[C@H]3C)c(F)c2[nH]c1=O [Example 107]	17	30
CCc1cc2ncc(CN3C[C@@H](F)[C@H](Oc4ccc(C(=O)NC)nc4)C3)cc2[nH]c1=O [Example 5, 5-{[(3R,4R)-1-[(7-ethyl-6-oxo-5H-1,5-naphthyridin-3-yl)methyl]-4-fluoropyrrolidin-3-yl]oxy}-N-methylpyridine-2-carboxamide]	> 1000	> 1000
CCc1cc2ncc(CN3C[C@H](Oc4ccc(C#N)c(F)c4)[C@H]3C)cc2[nH]c1=O [Example 68]	18	15
[2H]C([2H])([2H])NC(=O)c1ccc(O[C@H]2CN(Cc3ccc4nc(CC)c(=O)[nH]c4c3F)[C@@H]2C)c(F)n1 [Example 110, 5-{[(2R,3S)-1-[(2-ethyl-5-fluoro-3-oxo-4H-quinoxalin-6-yl)methyl]-2-methylazetidin-3-yl]oxy}-6-fluoro-N-methyl-d3 pyridine-2-carboxamide]	9.4	14
CCc1cc2ncc(CN3C[C@H](Oc4ccc(C#N)cc4F)[C@H]3C)cc2[nH]c1=O [Example 69]	5.6	11
[2H]C([2H])(c1ccc2nc(CC)c(=O)[nH]c2c1F)N1C[C@H](Oc2ccc(C(=O)NC)nc2F)[C@H]1C [Example 111]	13	15
CNC(=O)c1ccc(O[C@H]2CN(Cc3ccc4c([nH]c(=O)c5c(F)cnn54)c3F)[C@@H]2C)cn1 [Example 121, 5-{[(2R,3S)-1-({3,6-difluoro-4-oxo-5H-pyrazolo[1,5-a]quinoxalin-7-yl}methyl)-2-methylazetidin-3-yl]oxy}-N-methylpyridine-2-carboxamide]	1.8	1.2
CNC(=O)c1ccc(O[C@H]2CN(Cc3ccc4nc(C)c(=O)[nH]c4c3F)[C@@H]2C)c(F)n1 [Example 98]	29	61
CCc1cc2ncc(CN3CC[C@@H](N(C)c4ccc(C(=O)NC)nc4)C3)cc2[nH]c1=O [Example 11, 5-{[(3R)-1-[(7-ethyl-6-oxo-5H-1,5-naphthyridin-3-yl)methyl]pyrrolidin-3-yl](methyl)amino}-N-methylpyridine-2-carboxamide]	19	28
C[C@@H]1[C@@H](Oc2ccc(C(=O)NCC(F)F)nc2)CN1Cc1ccc2c3c(c(=O)[nH]c2c1F)CCO3 [Example 120]	8.7	21
CCc1cc2ncc(CN3CC[C@@H](Cc4ccc(C(=O)NC)nc4)C3)cc2[nH]c1=O [Example 13, 5-{[(3R)-1-[(7-ethyl-6-oxo-5H-1,5-naphthyridin-3-yl)methyl]pyrrolidin-3-yl]methyl}-N-methylpyridine-2-carboxamide]	12	38
CCc1cc2ncc(CN3C[C@H](Oc4ccc(C(=O)NC5CC5)nc4C#N)[C@H]3C)cc2[nH]c1=O [Example 79]	1.9	6.3
C[C@@H]1[C@@H](Oc2ccc(C#N)nc2)CN1Cc1cnc2cc(Cl)c(=O)[nH]c2c1 [Example 78]	35	32
C[C@@H]1[C@@H](Oc2ccc(C(=O)NC3CC3)nc2)CN1Cc1ccc2c3c(c(=O)[nH]c2c1F)CCO3 [Example 116]	3.3	13
CCNC(=O)c1ccc(O[C@H]2CN(Cc3cnc4cc(CC)c(=O)[nH]c4c3)[C@@H]2C)cn1 [Example 67]	0.65	0.97
CCc1cc2c(F)cc(CN3C[C@H](Oc4ccc(C(=O)NC)nc4)[C@H]3C)c(F)c2[nH]c1=O [Example 108]	12	12
CCc1cc2ncc(CN3C[C@H](F)[C@H](Oc4ccc(C(=O)NC)nc4)C3)cc2[nH]c1=O [Example 8, 5-{[(3R,4S)-1-[(7-ethyl-6-oxo-5H-1,5-naphthyridin-3-yl)methyl]-4-fluoropyrrolidin-3-yl]oxy}-N-methylpyridine-2-carboxamide]	–	> 1000
Cc1nc2ccc(CN3C[C@H](Oc4ccc(C(=O)NC5CC5)nc4F)[C@H]3C)c(F)c2[nH]c1=O [Example 103]	30	27
CCc1nc2ccc(CN3C[C@H](Oc4ccc(C(=O)NC)nc4F)[C@H]3C)c(F)c2[nH]c1=O [Example 100]	5.9	11
CCc1cc2ncc(CN3C[C@H](Oc4ccc(F)cc4C#N)[C@H]3C)cc2[nH]c1=O [Example 65]	91	93

Compound	EC50 [1] [nM]	EC50 (DLD-1 BRCA2(−/−) cells) [nM]
CCc1cc2ncc(CN3CC[C@H](Oc4ccc(C(=O)NC)nc4)C3)cc2[nH]c1=O [Example 1, 5-{[(3S)-1-[(7-ethyl-6-oxo-5H-1,5-naphthyridin-3-yl)methyl]pyrrolidin-3-yl]oxy}-N-methylpyridine-2-carboxamide]	> 1000	> 1000
CCc1cc2ncc(CN3CC(C)(Oc4ccc(C(=O)NC)nc4)C3)cc2[nH]c1=O [Example 15, 5-({1-[(7-ethyl-6-oxo-5H-1,5-naphthyridin-3-yl)methyl]-3-methylazetidin-3-yl}oxy)-N-methylpyridine-2-carboxamide]	–	> 1000
CCc1cc2ncc(CN3C[C@H](Oc4ccc(C(=O)NC5CC5)nc4F)[C@H]3C)cc2[nH]c1=O [Example 104]	0.85	1.9
CCc1cc2ccc(CN3CC(Oc4ccc(C(=O)NC5CC5)nc4)C3)c(F)c2[nH]c1=O [Example 118]	22	24
CNC(=O)c1ccc(O[C@H]2CN(Cc3ccc4cc(Cl)c(=O)[nH]c4c3F)[C@@H]2C)cn1 [Example 106, 5-{[(2R,3S)-1-[(3-chloro-8-fluoro-2-oxo-1H-quinolin-7-yl)methyl]-2-methylazetidin-3-yl]oxy}-N-methylpyridine-2-carboxamide]	5	8.3
CCc1nc2ccc(CN3C[C@H](Oc4ccc(C(=O)NC5CC5)nc4)[C@H]3C)c(F)c2[nH]c1=O [Example 95]	3.2	3.5
C[C@@H]1[C@@H](Oc2ccc(C(=O)NCC(F)F)nc2)CN1Cc1ccc2c([nH]c(=O)c3ccnn32)c1F [Example 119]	4.4	6.8
CCc1cc2ncc(CN3C[C@@H](Oc4ccc(C(=O)NC)nc4)[C@H]3C)cc2[nH]c1=O [Example 19, 5-{[(2R,3R)-1-[(7-ethyl-6-oxo-5H-1,5-naphthyridin-3-yl)methyl]-2-methylazetidin-3-yl]oxy}-N-methylpyridine-2-carboxamide]	> 1000	> 1000
CCc1nc2ccc(CN3CC(Oc4ccc(C(=O)NC5CC5)nc4)C3)c(F)c2[nH]c1=O [Example 117]	13	13
C[C@@H]1[C@@H](Oc2ccc(C(=O)NC3CC3)nc2)CN1Cc1ccc2cc(Cl)c(=O)[nH]c2c1F [Example 99]	1.7	4
Cc1nc2ccc(CN3C[C@H](Oc4ccc(C(=O)NC5CC5)nc4)[C@H]3C)c(F)c2[nH]c1=O [Example 94]	11	43
CNC(=O)c1ccc(O[C@H]2CN(Cc3cc(F)c4nc(C)c(=O)[nH]c4c3F)[C@@H]2C)cn1 [Example 102]	110	49
Cc1cc2ncc(CN3C[C@H](Oc4ccc(C(=O)N[C@H]5C[C@@H](F)C5)nc4)[C@H]3C)cc2[nH]c1=O [Example 81]	1.7	3
CCc1cc2ncc(CN3C[C@H](Oc4ccc(C#N)cc4C#N)[C@H]3C)cc2[nH]c1=O [Example 72]	50	33
CCNC(=O)c1ccc2c(ccn2[C@H]2CN(Cc3cnc4cc(CC)c(=O)[nH]c4c3)[C@@H]2C)n1 [Example 88]	3.4	6.3
C[C@@H]1[C@@H](Oc2ccc(C(=O)NC3CCC3)nc2)CN1Cc1cnc2cc(C(F)F)c(=O)[nH]c2c1 [Example 92]	1.1	1.6
CCc1cc2ncc(CN3C[C@H](n4ccc5nc(C(=O)NC6CC6)ccc54)[C@H]3C)cc2[nH]c1=O [Example 86]	1.8	3.4
CNC(=O)c1ccc(O[C@H]2CN(Cc3ccc4c([nH]c(=O)c5ccnn54)c3F)[C@@H]2C)cn1 [Example 113, 5-{[(2R,3S)-1-({6-fluoro-4-oxo-5H-pyrazolo[1,5-a]quinoxalin-7-yl}methyl)-2-methylazetidin-3-yl]oxy}-N-methylpyridine-2-carboxamide]	8.7	16
[2H]C([2H])(c1ccc2nc(CC)c(=O)[nH]c2c1F)N1C[C@H](Oc2ccc(C(=O)NC3CC3)nc2F)[C@H]1C [Example 112]	2.6	4.7
CCc1nc2ccc(CN3C[C@H](Oc4ccc(C(=O)NC)nc4)[C@H]3C)c(F)c2[nH]c1=O [Example 93]	5	7.2
CNC(=O)c1ccc(O[C@H]2CN(Cc3ccc4nc(C5CC5)c(=O)[nH]c4c3F)[C@@H]2C)cn1 [Example 97]	21	34
